Experimental data published in patent publication US20250049036A1 (priority 2021, published 2025).

What was measured:
Fusarium culmorum = Fusarium culmorum test on wheat, preventive, greenhouse; assay type: in vivo; settings: preventive spray on wheat, inoculated one day after treatment, read-out: control (efficacy, disease severity) compared to the untreated check
Procedure: The respective compound was dissolved in 2% dimethyl sulfoxide/acetone and then mixed with water containing an emulsifier to a calibrated spray volume of 30 mL. Each spray solution was poured into a spray bottle for further application.
(§1) To test the preventive activity of a compound, healthy young wheat plants, raised in the greenhouse, were sprayed with the active compound preparation at the stated application rate inside the spray cabinets using hollow cone nozzles. One day after the treatment, the plants were inoculated with a spore suspension containing 2×10^6 Fusarium culmorum inoculum. The inoculated plants were then kept in a greenhouse chamber at 24° C. temperature and 80-90% relative humidity for disease expression.
(§2) A visual assessment of the compound's performance was carried out by rating the disease severity (0 100% scale) on treated plants 3, 7, 10 and 15 days after application. Efficacy (% control) of the compound was calculated by comparing the disease rating in the treatment with the one of the untreated control. The treated plants were also assessed for plant damage by recording symptoms like necrosis, chlorosis and stunting.

Phakopsora pachyrhizi = Phakopsora pachyrhizi test on soybean, preventive, greenhouse; assay type: in vivo; settings: preventive spray on soybean, inoculated one day after treatment, read-out: control (efficacy, disease severity) compared to the untreated check
Summary of the method: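 Greenhouse-grown young soybean plants were sprayed with compound (2% DMSO/acetone, emulsifier in water) at the stated rate. One day later they were inoculated with 2×10^5 P. pachyrhizi inoculum and held at 22-24 °C, 80-90% relative humidity for disease development.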

Phytophthora infestans = test: whole plant or invertebrate; assay type: in vivo, Phytophthora infestans on tomato; settings: in Solanum lycopersicum, read-out: control (efficacy, disease severity) compared to the untreated check
Corynespora cassiicola [1] = test: Corynespora cassiicola test on tomato, preventive, greenhouse; assay type: in vivo; settings: 500 ppm; preventive spray on tomato, inoculated one day after treatment
Procedure: (§3) The respective compound was dissolved in 2% dimethyl sulfoxide/acetone and then mixed with water containing an emulsifier to the calibrated spray volume of 30 mL. Each spray solution was poured into a spray bottle for further application.
as §1, with “tomato” for “wheat”, “after” for “after the”, “2.6×10^6 Corynespora cassiicola” for “2×10^6 Fusarium culmorum”, “22-24°” for “24°”, “90-95%” for “80-90%”
as §2

Venturia Inequalis = test: Venturia inequalis (VENTIN) spore growth inhibition in liquid medium, 96-well microtiter plate, OD 600; assay type: cell-based; settings: spore suspension in PDB liquid medium, 18° C., 15-18 days, OD at 600, read-out: control compared to the untreated check
Summary of the method: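 Venturia inequalis spores (10^5 spores/ml suspension) were grown in potato dextrose broth with test compounds dissolved in DMSO, mixing equal volumes of compound solution and spore suspension. Plates were incubated at 18 °C for 15–18 days. Growth was read as OD600 and converted to percent inhibition.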

Pyricularia oryzae = test: microbe, parasite or virus in culture; assay type: cell-based; settings: 168 h, read-out: control compared to the untreated check
Corynespora cassiicola [2] = test: Corynespora cassiicola (leaf spot of tomato) mycelial radial growth on potato dextrose agar; assay type: cell-based; settings: 168 h, 25° C., seven days, read-out: control compared to the untreated check
Procedure: (§4) The compounds were dissolved in 0.3% dimethyl sulfoxide and then added to potato dextrose agar medium just prior to dispensing it into petri dishes. 5 mL medium, with the compound in the desired concentration, was dispensed into 60 mm sterile petri-plates. After solidification, each plate was seeded with a 5 mm size mycelial disc taken from the periphery of an actively growing virulent culture plate. The plates were incubated in growth chambers at 25° C. temperature and 70% relative humidity for seven days and the radial growth was measured and compared to the one of the untreated control.

Colletotrichum capsici = Colletotrichum capsici (anthracnose) mycelial radial growth on potato dextrose agar; assay type: cell-based; settings: Colletotrichum truncatum, 168 h, 25° C., seven days, read-out: control compared to the untreated check
Summary of the method: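 Compounds in 0.3% DMSO were mixed into potato dextrose agar, and each plate was seeded with a 5 mm mycelial disc from an actively growing culture. Plates were incubated at 25° C and 60% relative humidity for seven days. Radial growth was compared with untreated control.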

Alternaria solani [3] = test: Alternaria solani test in tomato, preventive, greenhouse; assay type: in vivo; settings: preventive spray on tomato, inoculated one day after treatment, read-out: control (efficacy, disease severity) compared to the untreated check
Procedure: as §3
as §1, with “tomato” for “wheat”, “after” for “after the”, “0.24×10^6 Alternaria solani” for “2×10^6 Fusarium culmorum”, “22-24°” for “24°”, “90-95%” for “80-90%”
as §2

Alternaria solani [4] = test: Alternaria solani (early blight of tomato/potato) mycelial radial growth on potato dextrose agar; assay type: cell-based; settings: 168 h, 25° C., seven days, read-out: control compared to the untreated check
Procedure: as §4, with “60%” for “70%”

Botrytis cinerea = Botrytis cinerea test on tomato, preventive, greenhouse; assay type: in vivo; settings: preventive spray on bean/chili plants (heading: tomato), inoculated one day after treatment, read-out: control (efficacy, disease severity) compared to the untreated check

CC(c1ccccc1F)C(C)(C)NC(=O)c1cnc2c(c1)c(Cl)cn2C (stereo not drawn) [Compound 64, 3-chloro-N-(3-(2-fluorophenyl)-2-methylbutan-2-yl)-1-methyl-1H-pyrrolo[2,3-b]pyridine-5-carboxamide]
≥ 70%: pest or weed control at 500 ppm (Fusarium culmorum) | pest or weed control at 500 ppm (Phakopsora pachyrhizi) | pest or weed control at 500 ppm (Phytophthora infestans) | control (efficacy, disease severity) compared to the untreated check (Corynespora cassiicola [1]) | inhibition of growth at 300 ppm (Venturia Inequalis) | inhibition of growth at 300 ppm (Pyricularia oryzae)

C=C(C)CC(C)(COc1ccc(F)cc1)NC(=O)c1cnc2c(ccn2C)c1 (stereo not drawn) [Compound 121, N-(1-(4-fluorophenoxy)-2,4-dimethylpent-4-en-2-yl)-1-methyl-1H-pyrrolo[2,3-b]pyridine-5-carboxamide]
≥ 70%: inhibition of growth at 300 ppm (Corynespora cassiicola [2]) | pest or weed control at 500 ppm (Fusarium culmorum) | inhibition of growth at 300 ppm (Colletotrichum capsici)

C=C(C)CC(C)(Cc1ccccc1F)NC(=O)c1cnc2c(ccn2C)c1 (stereo not drawn) [Compound 127, N-(1-(2-fluorophenyl)-2,4-dimethylpent-4-en-2-yl)-1-methyl-1H-pyrrolo[2,3-b]pyridine-5-carboxamide]
≥ 70%: inhibition of growth at 300 ppm (Corynespora cassiicola [2]) | pest or weed control at 500 ppm (Phakopsora pachyrhizi) | pest or weed control at 500 ppm (Alternaria solani [3]) | inhibition of growth at 300 ppm (Venturia Inequalis) | inhibition of growth at 300 ppm (Colletotrichum capsici)

CC(C)CC(C)(Cc1ccccc1)NC(=O)c1cnc2c(ccn2C)c1 (stereo not drawn) [Compound 2, N-(2,4-dimethyl-1-phenylpentan-2-yl)-1-methyl-1H-pyrrolo[2,3-b]pyridine-5-carboxamide]
≥ 70%: inhibition of growth at 300 ppm (Corynespora cassiicola [2]) | inhibition of growth at 300 ppm (Alternaria solani [4]) | pest or weed control at 500 ppm (Phakopsora pachyrhizi) | pest or weed control at 500 ppm (Alternaria solani [3]) | pest or weed control at 500 ppm (Botrytis cinerea) | inhibition of growth at 300 ppm (Colletotrichum capsici) | inhibition of growth at 300 ppm (Pyricularia oryzae)
